# In paper PMC9040678, “Sequence-specific capture and concentration of viral RNA by type III CRISPR system enhances diagnostic” (Research Square, 2022):
# Biological target: T1, TtCan1 (Thermus thermophilus, UniProt Q53W14)
# T1 construct: gene TTHB155; codon-optimised synthetic gene, E. coli BL21(DE3); N-terminal His6-TwinStrep-SUMO tag removed; monomeric
# T1 sequence (Q53W14 1-636): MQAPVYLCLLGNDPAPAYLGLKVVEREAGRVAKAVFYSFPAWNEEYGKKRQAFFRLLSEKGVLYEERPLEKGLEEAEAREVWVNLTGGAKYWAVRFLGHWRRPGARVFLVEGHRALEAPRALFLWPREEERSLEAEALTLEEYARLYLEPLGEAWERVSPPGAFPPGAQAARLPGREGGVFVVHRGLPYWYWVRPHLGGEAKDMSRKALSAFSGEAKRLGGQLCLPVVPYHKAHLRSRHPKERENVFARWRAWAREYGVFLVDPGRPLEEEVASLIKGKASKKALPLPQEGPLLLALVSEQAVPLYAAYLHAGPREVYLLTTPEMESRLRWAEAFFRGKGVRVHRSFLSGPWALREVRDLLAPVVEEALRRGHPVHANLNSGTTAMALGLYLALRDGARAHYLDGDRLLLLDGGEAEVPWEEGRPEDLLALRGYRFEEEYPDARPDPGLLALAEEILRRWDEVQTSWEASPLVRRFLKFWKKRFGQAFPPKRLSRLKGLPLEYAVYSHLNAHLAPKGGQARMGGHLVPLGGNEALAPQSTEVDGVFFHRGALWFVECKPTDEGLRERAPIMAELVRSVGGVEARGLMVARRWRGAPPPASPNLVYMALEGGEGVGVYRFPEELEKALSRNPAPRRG
# Assay: ssRNA cleavage, denaturing PAGE; fluorescent RNA reporters
# Format: biochemical
# Details: allosteric activator of ssRNase activity; 200 nM enzyme, 20 nM cA4, pH 7.8, 60 °C
smiles,measurement,value
Nc1ncnc2c1ncn2[C@@H]1O[C@@H]2COP(=O)(O)O[C@H]3[C@@H](O)[C@H](n4cnc5c(N)ncnc54)O[C@@H]3COP(=O)(O)O[C@H]3[C@@H](O)[C@H](n4cnc5c(N)ncnc54)O[C@@H]3COP(=O)(O)O[C@H]3[C@@H](O)[C@H](n4cnc5c(N)ncnc54)O[C@@H]3COP(=O)(O)O[C@H]2[C@H]1O [cA4],"ssRNA cleavage, denaturing PAGE; fluorescent RNA reporters",TtCan1 is a cA4-dependent single-stranded RNase (ssRNA) but does not cleave ssDNA
